ChEMBL document CHEMBL1201862, “PubChem BioAssay data set” (2004)
Calls of active or inactive are those of the source.

Legend:
[1] = molecular target: Ras and Rab interactor 1/Tyrosine-protein kinase ABL1 (Homo sapiens, UniProt P00519+Q13671); type: functional;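 note: biochemical TR-FRET dose-response test measuring inhibition of binding between Rin1 and Abl proteins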
Steroidogenic factor 1 = Steroidogenic factor 1 (Homo sapiens, UniProt Q13285); test: Counterscreen for inverse agonists of the liver receptor homolog-1 (LRH-1; NR5A2): Luminescence-based cell-based high throughput dose response assay to identify inverse agonists of the Steroidogenic Factor 1 Nuclear Receptor (SF1; NR5A1).; type: functional
[2] = molecular target: Nuclear receptor subfamily 5 group A member 2 (Homo sapiens, UniProt O00482); type: functional, cell-based;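 note: HEK293T cells transfected with LRH-1 and a StAR promoter luciferase reporter; potency for inhibitors that lower LRH-1 driven reporter light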
Nuclear receptor subfamily 5 group A member 2, sequence (O00482 whole entry): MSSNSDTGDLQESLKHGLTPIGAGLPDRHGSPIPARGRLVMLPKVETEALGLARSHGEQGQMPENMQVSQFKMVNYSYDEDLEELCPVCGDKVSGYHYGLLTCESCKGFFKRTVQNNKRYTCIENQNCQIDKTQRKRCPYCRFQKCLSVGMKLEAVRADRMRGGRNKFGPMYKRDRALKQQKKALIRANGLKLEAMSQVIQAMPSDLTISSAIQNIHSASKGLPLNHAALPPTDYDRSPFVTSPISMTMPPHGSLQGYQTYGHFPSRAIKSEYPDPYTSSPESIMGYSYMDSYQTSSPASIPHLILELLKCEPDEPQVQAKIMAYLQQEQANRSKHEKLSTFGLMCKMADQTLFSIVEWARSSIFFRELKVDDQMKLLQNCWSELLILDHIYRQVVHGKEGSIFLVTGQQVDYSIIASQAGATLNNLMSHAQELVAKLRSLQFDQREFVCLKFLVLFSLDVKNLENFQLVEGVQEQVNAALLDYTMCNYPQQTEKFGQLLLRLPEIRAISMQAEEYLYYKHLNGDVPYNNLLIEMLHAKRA

[3] = StAR promoter reporter inhibition counter-screen, dose response, counter-screen for LRH-1 inverse agonist project, cell-based, luminescence, luciferase reporter (AID 651969); type: functional
Melanocortin receptor 4 = Melanocortin receptor 4 (Homo sapiens, UniProt P32245); test: MC4R antagonist potency on cAMP, dose response, cell-based, TR-FRET, biased antagonists (AID 602298); type: functional;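 note: antagonist potency against agonist-stimulated cAMP production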
Melanocortin receptor 4, sequence (P32245 whole entry): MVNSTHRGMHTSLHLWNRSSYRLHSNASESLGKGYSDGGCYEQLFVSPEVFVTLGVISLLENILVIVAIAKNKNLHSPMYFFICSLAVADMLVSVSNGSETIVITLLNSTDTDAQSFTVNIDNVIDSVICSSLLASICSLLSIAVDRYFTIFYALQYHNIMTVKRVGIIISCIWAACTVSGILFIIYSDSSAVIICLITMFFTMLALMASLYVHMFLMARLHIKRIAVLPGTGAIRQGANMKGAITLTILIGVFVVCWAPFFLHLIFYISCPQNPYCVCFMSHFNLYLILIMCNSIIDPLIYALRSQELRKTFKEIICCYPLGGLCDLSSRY

[4] = nonselective inhibitors of cellular cAMP signaling, dose response, counter-screen for MC4R biased antagonist project, cell-based, TR-FRET cAMP detection (AID 602305); type: functional;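 note: U2OS cells stimulated with forskolin near its EC80 as the cAMP inducer; potency is for inhibition of forskolin-stimulated cAMP signaling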
[5] = molecular target: Luciferin 4-monooxygenase (Photinus pyralis, UniProt P08659); test: firefly luciferase enzyme inhibitors, dose response, biochemical, luminescence (AID 1891)
[6] = molecular target: FAD-linked sulfhydryl oxidase ALR (Homo sapiens, UniProt P55789); test: inhibitors of human ALR sulfhydryl oxidase, dose response, biochemical, H2O2 detection, luminescence, cherry-pick (AID 493248)
[7] = molecular target: T1, Heat shock factor protein 1 (Mus musculus, UniProt P38532); test: inhibition of MG132-induced HSE-luciferase signal, confirmation, cell-based, NIH3T3, luminescence, dose retest (AID 2382); type: functional;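 note: NIH3T3 fibroblasts with HSF1-driven luciferase reporter stressed by proteasome inhibitor MG132; luminescence from HSF1-driven luciferase expression after 8 hours of MG132 stress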
T1 sequence (P38532 whole entry): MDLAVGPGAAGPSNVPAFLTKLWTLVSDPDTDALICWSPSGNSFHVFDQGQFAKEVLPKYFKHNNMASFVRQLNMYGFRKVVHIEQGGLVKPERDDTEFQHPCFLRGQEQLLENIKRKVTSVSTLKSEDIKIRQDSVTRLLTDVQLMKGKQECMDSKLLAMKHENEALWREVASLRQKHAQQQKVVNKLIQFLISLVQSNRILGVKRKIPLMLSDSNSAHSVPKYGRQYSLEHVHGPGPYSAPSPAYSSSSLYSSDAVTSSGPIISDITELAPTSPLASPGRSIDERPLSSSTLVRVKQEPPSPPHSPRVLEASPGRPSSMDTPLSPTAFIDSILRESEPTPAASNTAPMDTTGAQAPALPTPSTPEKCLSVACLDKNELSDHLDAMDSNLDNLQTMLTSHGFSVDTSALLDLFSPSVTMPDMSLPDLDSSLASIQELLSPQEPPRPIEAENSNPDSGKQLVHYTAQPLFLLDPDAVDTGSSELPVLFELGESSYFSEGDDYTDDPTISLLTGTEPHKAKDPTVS

[8] = ARNT/TACC3 interaction disruptors, potency, confirmation, biochemical, AlphaScreen, cherry-picked samples (AID 651703); type: functional, Homo sapiens;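 note: His-tagged ARNT PAS-B domain paired with GST-TACC3 E629A dimer coactivator fragment; potency of inhibitors that break up the complex and lower AlphaScreen signal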
[9] = Luminescence Cell-Based Dose Confirmation HTS to Identify Inhibitors of Platelet Dense Granule Release. [Related pubchem assays: 1663 (Primary HTS), 1678 (Summary of Project)]; type: functional
[10] = control 3'UTR Renilla luciferase suppression, dose response, counter-screen for Shn3 inhibitor project, cell-based, Clone20-Shn3RL, cherry-picked (AID 624133); type: functional
[11] = HepG2 cell cytotoxicity, dose response, cytotoxicity control for Shn3 inhibitor project, CellTiter-Glo, cherry-picked (AID 624134); type: functional, cell-based
[12] = molecular target: Photoreceptor-specific nuclear receptor (Homo sapiens, UniProt Q9Y5X4); type: functional, cell-based;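 note: CHO-S cells with Gal4-NCOR and VP16-NR2E3 two-hybrid luciferase reporter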
Photoreceptor-specific nuclear receptor, sequence (Q9Y5X4 whole entry, the tested form may be a part): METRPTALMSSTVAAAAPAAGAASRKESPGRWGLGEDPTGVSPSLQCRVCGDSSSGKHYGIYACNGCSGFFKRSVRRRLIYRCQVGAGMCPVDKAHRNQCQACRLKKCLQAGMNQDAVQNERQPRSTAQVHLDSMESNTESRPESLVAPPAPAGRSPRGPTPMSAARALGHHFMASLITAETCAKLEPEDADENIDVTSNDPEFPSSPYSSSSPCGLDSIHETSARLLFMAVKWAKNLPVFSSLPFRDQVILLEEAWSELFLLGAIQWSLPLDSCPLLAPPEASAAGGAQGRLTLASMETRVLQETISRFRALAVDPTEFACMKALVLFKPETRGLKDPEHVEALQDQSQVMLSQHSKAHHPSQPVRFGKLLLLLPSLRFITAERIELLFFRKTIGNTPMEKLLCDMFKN

[13] = Shn3 3'UTR reporter inhibitors, dose response, cell-based, Clone20 osteoblasts, firefly luciferase, cherry-picked (AID 624132); type: functional;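 note: firefly luciferase luminescence from reporter carrying the Shn3 3'UTR in osteoblasts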
cells = type: functional, cell-based
[14] = molecular target: T2, Nuclear receptor subfamily 0 group B member 1 (Homo sapiens, UniProt P51843); type: functional, cell-based;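 note: HEK293T cells transfected with SF-1 and DAX-1 plus StAR promoter luciferase reporter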
T2 sequence (P51843 whole entry): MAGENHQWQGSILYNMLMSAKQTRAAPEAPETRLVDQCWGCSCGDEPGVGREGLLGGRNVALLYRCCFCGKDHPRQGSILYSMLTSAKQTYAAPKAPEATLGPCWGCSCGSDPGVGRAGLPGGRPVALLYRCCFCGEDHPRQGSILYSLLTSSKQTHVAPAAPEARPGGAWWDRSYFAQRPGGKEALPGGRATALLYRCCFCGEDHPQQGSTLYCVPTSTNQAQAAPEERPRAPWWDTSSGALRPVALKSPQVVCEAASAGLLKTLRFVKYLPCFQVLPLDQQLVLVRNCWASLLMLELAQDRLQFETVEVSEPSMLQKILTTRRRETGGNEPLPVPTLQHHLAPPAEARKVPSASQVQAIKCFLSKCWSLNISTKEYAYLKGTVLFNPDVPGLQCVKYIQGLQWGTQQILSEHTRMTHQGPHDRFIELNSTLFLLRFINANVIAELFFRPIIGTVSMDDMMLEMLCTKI

[15] = molecular target: Adenosylmethionine-8-amino-7-oxononanoate aminotransferase (Mycobacterium tuberculosis, UniProt P9WQ81); test: Mycobacterium tuberculosis BioA enzyme inhibitor Measured in Biochemical System Using Plate Reader - 2163-02_Inhibitor_Dose_CherryPick_Activity.; type: functional, Mycobacterium tuberculosis UT205
Adenosylmethionine-8-amino-7-oxononanoate aminotransferase, sequence (P9WQ81 whole entry): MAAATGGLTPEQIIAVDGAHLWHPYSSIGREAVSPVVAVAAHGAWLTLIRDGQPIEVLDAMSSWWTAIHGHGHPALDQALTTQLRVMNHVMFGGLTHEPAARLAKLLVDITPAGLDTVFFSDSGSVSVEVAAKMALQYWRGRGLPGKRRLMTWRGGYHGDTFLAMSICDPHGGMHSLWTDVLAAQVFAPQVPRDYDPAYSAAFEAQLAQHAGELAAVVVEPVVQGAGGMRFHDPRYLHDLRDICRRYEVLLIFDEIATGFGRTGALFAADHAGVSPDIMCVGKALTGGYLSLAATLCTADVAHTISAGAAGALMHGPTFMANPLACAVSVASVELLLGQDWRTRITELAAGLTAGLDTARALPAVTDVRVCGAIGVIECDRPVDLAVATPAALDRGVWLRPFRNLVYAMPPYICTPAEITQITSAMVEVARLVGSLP

Protein Wnt-3a = Protein Wnt-3a (Mus musculus, UniProt P27467); test: Wnt3a-driven reporter signaling inhibition, dose response, selectivity assay for Gli-SUFU antagonist project, Wnt-LIGHT cells, luminescence (AID 651570); type: functional; details: read-out: IC50_Mean;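 note: Wnt-LIGHT reporter cells stimulated with conditioned medium from Wnt3a-producing cells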
Protein Wnt-3a, sequence (P27467 whole entry): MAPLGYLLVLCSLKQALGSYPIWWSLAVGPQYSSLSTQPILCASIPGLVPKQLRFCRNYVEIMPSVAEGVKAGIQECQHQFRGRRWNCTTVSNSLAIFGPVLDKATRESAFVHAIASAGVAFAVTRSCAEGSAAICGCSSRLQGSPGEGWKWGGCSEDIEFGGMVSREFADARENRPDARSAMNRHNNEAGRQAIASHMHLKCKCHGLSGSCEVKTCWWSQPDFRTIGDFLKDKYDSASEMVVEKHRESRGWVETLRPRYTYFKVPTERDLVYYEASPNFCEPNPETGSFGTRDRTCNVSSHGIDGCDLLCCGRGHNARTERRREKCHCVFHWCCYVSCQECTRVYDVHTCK

INS1 = test: beta cell apoptosis inhibitors, cytokine rescue, dose response, luminescence, retest (AID 449756); type: functional, cell-based; details: Rattus norvegicus;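 note: cell death triggered by IL-1 beta plus TNF-alpha plus IFN-gamma mixture; protective hits raise ATP signal compared with cytokine alone wells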
[16] = molecular target: T3, Orexin/Hypocretin receptor type 1 (Homo sapiens, UniProt O43613); test: (§1) Fluorescence-based cell-based high throughput dose response assay for antagonists of the orexin 1 receptor (OX1R; HCRTR1). [Related pubchem assays (depositor defined):AID434989, AID435008, AID463079, AID485270, AID492963, AID492964, AID492965, AID493232, AID504717, AID504718]; type: functional
T3 sequence (O43613 whole entry): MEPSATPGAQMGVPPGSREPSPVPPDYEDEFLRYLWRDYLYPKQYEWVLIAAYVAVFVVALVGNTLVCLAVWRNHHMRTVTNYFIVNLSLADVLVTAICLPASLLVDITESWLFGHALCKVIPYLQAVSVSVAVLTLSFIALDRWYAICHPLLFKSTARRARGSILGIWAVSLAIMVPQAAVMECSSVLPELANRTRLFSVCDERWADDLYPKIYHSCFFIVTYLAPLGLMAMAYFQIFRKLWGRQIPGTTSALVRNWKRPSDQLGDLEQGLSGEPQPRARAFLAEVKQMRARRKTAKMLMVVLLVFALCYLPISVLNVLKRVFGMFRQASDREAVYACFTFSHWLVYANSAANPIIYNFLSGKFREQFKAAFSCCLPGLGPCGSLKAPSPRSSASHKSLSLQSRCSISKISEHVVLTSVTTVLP

[17] = (§2) Counterscreen for antagonists of the orexin 1 receptor (OX1R; HCRTR1): Fluorescence-based cell-based high throughput dose response assay to identify antagonists of the parental CHO cell line. [Related pubchem assays (depositor defined):AID434989, AID435008, AID463079, AID485270, AID492963, AID492964, AID492965, AID493232, AID504699, AID504701]; type: functional
Orexin receptor type 2 [18] = molecular target: T4, Orexin receptor type 2 (Homo sapiens, UniProt O43614); test: Counterscreen assay for antagonists of the orexin 1 receptor (OX1R; HCRTR1): Homogeneous Time Resolved Fluorescence (HTRF)-based cell-based dose response assay for antagonists of the orexin 2 receptor (OX2R; HCRTR2), run by assay provider.; type: functional
T4 sequence (O43614 whole entry): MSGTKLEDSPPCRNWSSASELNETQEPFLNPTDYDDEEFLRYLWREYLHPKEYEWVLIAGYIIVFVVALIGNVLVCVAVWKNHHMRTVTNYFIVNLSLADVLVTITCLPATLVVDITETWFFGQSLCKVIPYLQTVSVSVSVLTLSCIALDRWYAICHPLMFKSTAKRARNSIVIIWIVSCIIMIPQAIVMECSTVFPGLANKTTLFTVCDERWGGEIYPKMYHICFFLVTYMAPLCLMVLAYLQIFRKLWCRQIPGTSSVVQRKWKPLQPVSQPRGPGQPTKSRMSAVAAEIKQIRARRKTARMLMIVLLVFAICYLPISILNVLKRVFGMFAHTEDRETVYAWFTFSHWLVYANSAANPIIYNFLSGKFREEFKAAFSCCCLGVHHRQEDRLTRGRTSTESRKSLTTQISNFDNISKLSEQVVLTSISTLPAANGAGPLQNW

[19] = molecular target: T3, Orexin/Hypocretin receptor type 1; test: as §1, with “Homogeneous Time Resolved Fluorescence (HTRF)-based” for “Fluorescence-based”; type: functional
CHO-K1 = test: as §2, with “Homogeneous time resolved fluorescence (HTRF)-based” for “Fluorescence-based”, “cell-based” for “cell-based high throughput”, “CHO-K1” for “CHO”; type: functional; details: Cricetulus griseus
Orexin receptor type 2 [20] = molecular target: T4, Orexin receptor type 2; test: Counterscreen assay for antagonists of the orexin 1 receptor (OX1R; HCRTR1): Fluorescence-based cell-based dose response assay for antagonists of the orexin 2 receptor (OX2R; HCRTR2), run by assay provider.; type: functional
Mu-type opioid receptor = Mu-type opioid receptor (Homo sapiens, UniProt P35372); type: functional, cell-based;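 note: U2OS cells with beta-arrestin recruitment to OPRM1 by beta-gal complementation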
Mu-type opioid receptor, sequence (P35372 whole entry): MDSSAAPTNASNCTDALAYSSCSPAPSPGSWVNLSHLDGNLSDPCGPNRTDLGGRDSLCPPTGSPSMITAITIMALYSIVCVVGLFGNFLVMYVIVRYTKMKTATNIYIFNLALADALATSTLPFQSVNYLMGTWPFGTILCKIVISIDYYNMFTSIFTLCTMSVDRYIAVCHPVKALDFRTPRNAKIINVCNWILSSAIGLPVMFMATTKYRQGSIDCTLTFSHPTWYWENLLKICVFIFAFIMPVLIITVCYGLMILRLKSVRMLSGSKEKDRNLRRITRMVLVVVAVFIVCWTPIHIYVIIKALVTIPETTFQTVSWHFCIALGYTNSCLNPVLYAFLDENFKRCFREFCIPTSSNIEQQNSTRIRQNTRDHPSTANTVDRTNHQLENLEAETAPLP

[21] = molecular target: 5-hydroxytryptamine receptor 2A (Mus musculus, UniProt P35363); type: functional, cell-based;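 note: CHO-K1 cells with tagged receptor and beta-arrestin; agonist potency measured as compound-induced activation of the receptor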
5-hydroxytryptamine receptor 2A, sequence (P35363 whole entry): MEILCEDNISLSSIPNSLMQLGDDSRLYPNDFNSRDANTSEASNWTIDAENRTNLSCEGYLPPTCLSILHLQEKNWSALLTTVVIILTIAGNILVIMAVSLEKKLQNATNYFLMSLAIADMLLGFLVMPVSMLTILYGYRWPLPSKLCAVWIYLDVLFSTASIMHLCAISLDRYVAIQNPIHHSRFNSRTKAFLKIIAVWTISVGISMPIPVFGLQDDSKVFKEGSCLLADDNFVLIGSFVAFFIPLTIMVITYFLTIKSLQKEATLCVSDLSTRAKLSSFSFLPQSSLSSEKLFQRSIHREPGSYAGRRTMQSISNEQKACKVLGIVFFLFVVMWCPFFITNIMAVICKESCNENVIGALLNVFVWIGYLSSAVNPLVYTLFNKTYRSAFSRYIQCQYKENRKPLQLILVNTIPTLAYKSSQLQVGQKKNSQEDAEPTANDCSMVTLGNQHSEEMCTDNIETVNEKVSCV

[22] = Luminescence Cell-Based Dose Retest to Confirm Inhibitors of Cancer Stem Cells. [Related pubchem assays (depositor defined):AID2717, AID2721]; type: functional; details: Homo sapiens
HeLa = test: HeLa cell cytotoxicity, dose response, cytotoxicity control for MITF activator project, CellTiter-Glo luminescence, cherry-pick samples (AID 540259); type: functional, cell-based; details: Homo sapiens

Ras and Rab interactor 1/Tyrosine-protein kinase ABL1, sequence (P00519 whole entry): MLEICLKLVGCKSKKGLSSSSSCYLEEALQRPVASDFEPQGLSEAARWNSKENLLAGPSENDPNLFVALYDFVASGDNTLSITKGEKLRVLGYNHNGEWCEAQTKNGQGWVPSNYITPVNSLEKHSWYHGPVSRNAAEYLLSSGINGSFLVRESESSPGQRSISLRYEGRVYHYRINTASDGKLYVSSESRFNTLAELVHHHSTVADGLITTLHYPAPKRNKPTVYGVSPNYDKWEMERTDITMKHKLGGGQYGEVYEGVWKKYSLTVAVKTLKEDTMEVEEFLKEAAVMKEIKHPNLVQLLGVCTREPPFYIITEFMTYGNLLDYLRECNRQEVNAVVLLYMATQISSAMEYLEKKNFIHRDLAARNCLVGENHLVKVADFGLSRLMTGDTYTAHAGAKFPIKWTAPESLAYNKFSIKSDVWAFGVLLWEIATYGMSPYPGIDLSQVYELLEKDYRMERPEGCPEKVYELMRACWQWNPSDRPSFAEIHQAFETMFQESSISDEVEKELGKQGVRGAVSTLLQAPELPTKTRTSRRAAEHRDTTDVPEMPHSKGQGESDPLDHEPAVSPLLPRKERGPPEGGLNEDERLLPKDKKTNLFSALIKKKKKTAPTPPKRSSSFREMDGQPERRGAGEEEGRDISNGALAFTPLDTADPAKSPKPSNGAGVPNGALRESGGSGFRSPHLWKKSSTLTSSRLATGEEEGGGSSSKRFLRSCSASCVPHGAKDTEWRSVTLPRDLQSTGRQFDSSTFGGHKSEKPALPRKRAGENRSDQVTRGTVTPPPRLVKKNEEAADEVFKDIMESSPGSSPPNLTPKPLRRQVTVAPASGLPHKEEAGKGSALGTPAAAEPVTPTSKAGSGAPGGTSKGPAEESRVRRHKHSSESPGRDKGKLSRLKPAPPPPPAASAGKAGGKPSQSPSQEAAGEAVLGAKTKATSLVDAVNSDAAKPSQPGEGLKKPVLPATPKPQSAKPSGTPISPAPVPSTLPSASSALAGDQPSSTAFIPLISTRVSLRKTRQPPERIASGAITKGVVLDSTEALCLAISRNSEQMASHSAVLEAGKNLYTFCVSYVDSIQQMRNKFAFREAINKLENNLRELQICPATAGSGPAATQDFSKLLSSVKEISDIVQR
Ras and Rab interactor 1/Tyrosine-protein kinase ABL1, sequence (Q13671 whole entry): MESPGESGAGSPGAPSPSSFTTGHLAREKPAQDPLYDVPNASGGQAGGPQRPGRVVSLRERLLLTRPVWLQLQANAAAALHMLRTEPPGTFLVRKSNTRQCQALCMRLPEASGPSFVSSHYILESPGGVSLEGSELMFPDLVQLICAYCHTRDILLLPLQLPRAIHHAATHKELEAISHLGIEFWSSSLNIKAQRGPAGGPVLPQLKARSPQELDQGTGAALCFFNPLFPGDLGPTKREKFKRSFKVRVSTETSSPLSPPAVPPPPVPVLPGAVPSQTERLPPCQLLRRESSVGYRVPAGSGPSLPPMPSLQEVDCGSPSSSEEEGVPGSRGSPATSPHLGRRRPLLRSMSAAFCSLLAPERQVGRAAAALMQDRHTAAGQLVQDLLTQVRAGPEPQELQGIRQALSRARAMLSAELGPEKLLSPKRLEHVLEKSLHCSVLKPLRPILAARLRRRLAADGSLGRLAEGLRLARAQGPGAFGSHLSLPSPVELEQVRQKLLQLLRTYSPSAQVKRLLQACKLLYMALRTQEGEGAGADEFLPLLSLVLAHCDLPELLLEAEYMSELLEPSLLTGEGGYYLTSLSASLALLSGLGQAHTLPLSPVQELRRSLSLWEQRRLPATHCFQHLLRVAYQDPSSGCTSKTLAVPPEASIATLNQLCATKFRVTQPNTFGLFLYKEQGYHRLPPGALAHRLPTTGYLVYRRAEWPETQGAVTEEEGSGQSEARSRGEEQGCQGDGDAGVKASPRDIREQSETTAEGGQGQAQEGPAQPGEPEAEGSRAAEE

## CN(Cc1ccccc1)S(=O)(=O)c1ccc(Cl)c(C(=O)N2CCC2)c1
[1]
  IC50: 32.9 µM (inactive)

## O=C(Nc1ccc(C(=O)N2CCOCC2)cc1)c1cccc([N+](=O)[O-])c1
Steroidogenic factor 1
  IC50: 1.09 µM (active)
[2]
  IC50: 15 µM (inactive)
[3]
  IC50: 35.9 µM (inactive)

## COc1ccnc(Oc2ccccc2)c1C(=O)N=CNOCc1ccccc1F
Steroidogenic factor 1
  IC50: 3.65 µM (active)
[2]
  IC50: 3.99 µM (active)
[3]
  IC50: 26.1 µM (inactive)

## COc1cc(-c2nc3ccc4ccccc4c3c3c2CCC3)cc(OC)c1OC
Melanocortin receptor 4
  IC50: 43.1 µM (inactive)
[4]
  IC50: > 64.6 µM (inactive)

## COc1ccc(CCNC(=O)c2ccc(NC3=NC4CS(=O)(=O)CC4S3)cc2)cc1OC (stereo unspecified)
[1]
  IC50: 26.3 µM (inactive)

## NNC(=O)c1ccc(O)cc1O
[5]
  EC50: > 112 µM (not active)
[6]
  AC50: 16 µM (active)
[7]
  EC50: > 195 µM (not active)
[8]
  AC50: 91.8 µM (active)
[9]
  EC50: > 112 µM (not active)

## O=C(OCCOc1ccc(Cl)cc1)c1cc(S(=O)(=O)N2CCCCC2)ccc1N1CCOCC1
[10]
  AC50: 6.64 µM (active)
[11]
  AC50: > 70 µM (inactive)
[12]
  IC50: 4.3 µM (active)
[13]
  AC50: 1.97 µM (active)

## O=C(Nc1ncccc1O)c1ccc(S(=O)(=O)N2CCCCCC2)cc1
cells
  IC50: > 67.5 µM (inactive)
[14]
  IC50: 31.7 µM (inactive)

## c1ccc(CNc2ncnc3sccc23)cc1
[12]
  IC50: 3.7 µM (active)

## O=C(Cc1ccccc1)N1CC[C@@H]2[C@H](CO)Nc3ccc(Br)cc3[C@@H]21
[15]
  AC50: 3.09 µM (active)

## Cc1cc(Br)c(S(=O)(=O)NCc2ccncc2)cc1C
[10]
  AC50: 3.34 µM (active)
[11]
  AC50: 2.37 µM (active)
[13]
  AC50: 1.41 µM (active)
Protein Wnt-3a
  IC50: 3.16 µM (active)

## CCCC(C)C(=O)Nc1nc(C)c(-c2csc(Nc3ccc(Cl)cc3)n2)s1 (stereo unspecified)
INS1
  AC50: 4.18 µM (active)
Protein Wnt-3a
  IC50: 13.8 µM (active)

## Cc1c(NS(=O)(=O)c2cccc(C(=O)OCC(=O)N(C)C3CCCCC3)c2)c(=O)n(-c2ccccc2)n1C
[16]
  IC50: 2.42 µM (active)
[17]
  IC50: > 49.7 µM (inactive)
Orexin receptor type 2 [18]
  IC50: 0.8 µM (active)
[19]
  IC50: 0.142 µM (active)
CHO-K1
  IC50: > 66.2 µM (inactive)
Orexin receptor type 2 [20]
  IC50: 1.2 µM (active)

## Brc1ccc(CN2CCN(c3ccccn3)CC2)s1
Mu-type opioid receptor
  EC50: 92.5 µM (inactive)
[21]
  EC50: 0.0705 µM (active)

## O=C(Nc1ccccc1N1CCCCC1)c1ccc(Cl)c([N+](=O)[O-])c1
Melanocortin receptor 4
  IC50: > 64.6 µM (inactive)
[4]
  IC50: > 64.6 µM (inactive)
[22]
  AC50: 3.19 µM (active)

## Cc1cccc(C)c1OCC(O)CN1CCN(c2ccccc2)CC1 (stereo unspecified)
Mu-type opioid receptor
  EC50: 92.5 µM (inactive)
[21]
  EC50: 76.1 µM (inactive)

## COc1cccc(-c2cc(C(=O)Nc3ccccc3SC)no2)c1
[16]
  IC50: 3.59 µM (active)
[17]
  IC50: > 49.7 µM (inactive)
Orexin receptor type 2 [18]
  IC50: > 50 µM (inactive)
HeLa
  AC50: 97.5 µM (active)
[19]
  IC50: 1.91 µM (active)
CHO-K1
  IC50: > 66.2 µM (inactive)
Orexin receptor type 2 [20]
  IC50: > 88.8 µM (inactive)

## COc1ccc(C(C)NC(=O)Nc2ccc(C(C)=O)cc2)cc1OC (stereo unspecified)
[15]
  AC50: 3.72 µM (active)

## Cc1nc2cc(-c3nc4ccccc4o3)ccc2[nH]1
[16]
  IC50: 6.1 µM (active)
[17]
  IC50: > 49.8 µM (inactive)
Orexin receptor type 2 [18]
  IC50: > 50 µM (inactive)
[19]
  IC50: 1.06 µM (active)
CHO-K1
  IC50: > 66.2 µM (inactive)
Orexin receptor type 2 [20]
  IC50: > 88.8 µM (inactive)
